The record followed here is patent US5744450A, “GnRH analogs” (The Salk Institute for Biological Studies, priority 1995, dated 1998).

This assay deals with LH release.

On to `CCNC(=O)[C@@H]1CCCN1C(=O)[C@H](CCCNC(=N)N)NC(=O)[C@H](CC(C)C)NC(=O)[C@@H](Cc1ccc(Nc2n[nH]c(N)n2)cc1)NC(=O)[C@H](Cc1ccc(O)cc1)NC(=O)[C@H](CO)NC(=O)[C@H](Cc1c[nH]c2ccccc12)NC(=O)[C@H](Cc1c[nH]cn1)NC(=O)[C@@H]1CCC(=O)N1` [Peptide 130A, pGlu-His-Trp-Ser-Tyr-D-Aph(3-amino-1,2,4-triazole)-Leu-Arg-Pro-NHCH2 CH3], for which the “potency relative to native GnRH” value was “about 79 times that of native GnRH”.
